Target: T1, CRF receptor (Rattus norvegicus, UniProt P35353)
T1 construct: The frontal cortex of rats was homogenized in a 50 mM Tris hydrochloric acid buffer; from tissue; host or cells: rat frontal cortex membranes
T1 sequence (P35353 24-415): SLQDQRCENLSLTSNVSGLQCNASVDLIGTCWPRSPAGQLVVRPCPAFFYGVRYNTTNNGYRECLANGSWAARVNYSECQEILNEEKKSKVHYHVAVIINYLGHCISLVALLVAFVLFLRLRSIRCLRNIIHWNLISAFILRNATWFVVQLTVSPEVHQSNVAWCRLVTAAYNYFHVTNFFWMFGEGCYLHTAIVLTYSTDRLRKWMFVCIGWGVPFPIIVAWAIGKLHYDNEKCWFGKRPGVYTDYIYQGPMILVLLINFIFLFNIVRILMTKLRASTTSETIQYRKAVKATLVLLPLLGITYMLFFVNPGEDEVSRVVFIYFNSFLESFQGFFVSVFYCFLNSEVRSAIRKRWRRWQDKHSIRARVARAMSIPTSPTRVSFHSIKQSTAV
Assay: CRF receptor binding experiment (125I-CRF, rat frontal cortex membranes)
Conditions: frontal cortex membranes of rats 0.3 mg protein/ml; 125I-CRF 0.2 nM; 2 hours at 25° C.; read-out: IC50 (concentration of the test agent for controlling 50% of the binding of 125I-CRF)
Experimental: Experimental Example [CRF receptor binding experiment]
As a receptor preparation, the frontal cortex membranes of rats were employed.
As a ^125I labeled ligand, ^125I-CRF was employed.
The binding reaction employing a ^125I labeled ligand was carried out in the following method as described in The Journal of Neuroscience, 7, 88 (1987).
Preparation of the receptor membrane preparations: The frontal cortex of rats was homogenized in a 50 mM Tris hydrochloric acid buffer (pH 7.0) containing 10 mM MgCl2 and 2 mM EDTA, and subsequently, the homogenized mixture was centrifuged at 48,000×g. The precipitate was washed once with the Tris hydrochloric acid buffer. The precipitate was suspended in a 50 mM tris hydrochloric acid buffer (pH 7.0) containing 10 mM MgCl2, 2 mM EDTA, 0.1% bovine serum albumin, and 100 kalliklein unit/ml aprotinin, to produce a membrane preparation.
CRF receptor binding experiment: The membrane preparation (0.3 mg protein/ml), ^125I-CRF (0.2 nM), and a test agent were reacted for 2 hours at 25° C. […] After completion of the washing, the radioactivity of the filter paper was measured by a gamma counter.
The binding quantity obtained when the reaction was carried out in the presence of 1 μM CRF was determined as nonspecific binding of ^125I-CRF, while the difference between the total binding and the nonspecific binding was determined as a specific binding. […]

IC50: ≤ 100 nM
Compound: CSc1cc(C(C)C)ccc1-n1cc(C)c2c(N3CC=C(C(N)=O)CC3)nc(C)nc21 [Com. No. 07, 4-(4-carbamoyl-1,2,3,6-tetrahydropyridin-1-yl)-2,5-dimethyl-7-(4-isopropyl-2-methylthiophenyl)-7H-pyrrolo[2,3-d]pyrimidine]

— patent US6894168B2, “Carbamoyl tetrahydropyridine derivatives” (Taisho Pharmaceutical Co., Ltd., priority 1999, dated 2005)
